# Assay results from patent US20230046416A1 (Soteria Biotherapeutics, Inc., priority 2019, published 2023).
# Test system: AZ21
# Assay: Biolayer interferometry, Ab59 binding to immobilized AZ21
# Description: Binding kinetics between BCl-2 fusion protein Ab59 and AZ-21 was assayed by biolayer interferometry. […] Curves represent measured data points on an Octet RED384.
# Sequence of AZ21 (P10415 1-207 C158A limits assumed): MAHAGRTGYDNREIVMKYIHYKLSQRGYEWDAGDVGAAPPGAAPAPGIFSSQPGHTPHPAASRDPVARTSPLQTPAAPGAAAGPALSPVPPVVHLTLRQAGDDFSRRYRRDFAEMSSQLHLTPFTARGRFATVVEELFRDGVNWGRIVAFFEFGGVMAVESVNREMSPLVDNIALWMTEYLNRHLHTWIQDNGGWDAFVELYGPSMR
substance,measurement,setting,value
"Ab59: heterodimeric Fc fusion protein: BCl-2 C158A linked to a human IgG1 Fc, plus a second human IgG1 Fc domain",binding to AZ21 in the presence of ABT-199,"with ABT-199, FIG. 25B",potent and reversible binding
same,binding to AZ21 in the absence of ABT-199,"without ABT-199, FIG. 25B",no significant binding
